# Experimental data: patent US10253007B2, “Taxanes compounds, preparation method therefor, and uses thereof” (Jiangsu Tasly Diyi Pharmaceutical Co., Ltd., priority 2013, dated 2019)
# Columns and labels:
# Type in all cases: cell-based
# [1] = system: breast cancer cell line MCF-7; assay: IC50 values on breast cancer cell line MCF-7; conditions: Homo sapiens, MCF7, 72 h, read-out: MCF-7(IC50, nM)
# Procedure, shortened: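 MCF-7 human breast cancer cells exposed to compounds for 72 h, with paclitaxel as positive control. IC50 from three independent repeats with replicate wells.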
# [2] = MTT assay, proliferation inhibition; conditions: Homo sapiens, LN-18 gastric cancer, read-out: Proliferation inhibition rate
# Text: (§1) 1. Cytotoxicity Assay Using Human Tumor Cell Lines
# (§2) Paclitaxel was used as the positive drug.
# LNCaP prostate cancer = assay: MTT assay, proliferation inhibition; conditions: Homo sapiens, read-out: Proliferation inhibition rate
# Text: as §1, §2
# A2780 ovarian cancer = assay: MTT assay, proliferation inhibition; conditions: Homo sapiens, read-out: Proliferation inhibition rate
# Text: as §1, §2
# DU145 prostate cancer = assay: MTT assay, proliferation inhibition; conditions: Homo sapiens, DU-145, read-out: Proliferation inhibition rate
# Text: as §1, §2
# HL60 leukemia = assay: MTT assay, proliferation inhibition; conditions: Homo sapiens, HL-60, read-out: Proliferation inhibition rate
# Text: as §1, §2
# [3] = system: A549 non-small cell lung cancer; assay: MTT assay, proliferation inhibition; conditions: Homo sapiens, read-out: Proliferation inhibition rate
# Text: as §1, §2
# K562 leukemia = assay: MTT assay, proliferation inhibition; conditions: Homo sapiens, read-out: Proliferation inhibition rate
# Text: as §1, §2
# MDA-MB-436 breast cancer = assay: MTT assay, proliferation inhibition; conditions: Homo sapiens, read-out: Proliferation inhibition rate
# Text: as §1, §2
# HeLa cervical cancer = assay: MTT assay, proliferation inhibition; conditions: Homo sapiens, read-out: Proliferation inhibition rate
# Text: as §1, §2
# HCT 116 colon cancer = assay: MTT assay, proliferation inhibition; conditions: Homo sapiens, read-out: Proliferation inhibition rate
# Text: as §1, §2
# BGC-823 gastric cancer = assay: MTT assay, proliferation inhibition; conditions: Homo sapiens, read-out: Proliferation inhibition rate
# Text: as §1, §2
# B16 melanoma = assay: MTT assay, proliferation inhibition; conditions: read-out: Proliferation inhibition rate
# Text: as §1, §2
# MCF-7 breast cancer = assay: MTT assay, proliferation inhibition; conditions: Homo sapiens, MCF7, read-out: Proliferation inhibition rate
# Text: as §1, §2
# HT29 colon cancer = assay: MTT assay, proliferation inhibition; conditions: Homo sapiens, HT-29, read-out: Proliferation inhibition rate
# Text: as §1, §2
# [4] = system: NCI-H460 non-small cell lung cancer; assay: MTT assay, proliferation inhibition; conditions: Homo sapiens, read-out: Proliferation inhibition rate
# Text: as §1, §2
# A375 melanoma = assay: MTT assay, proliferation inhibition; conditions: Homo sapiens, A-375, read-out: Proliferation inhibition rate
# Text: as §1, §2
smiles,measurement,setting,value
CO[C@H]1C(=O)[C@]2(C)[C@@H](OC(=O)N(C)C)C[C@H]3OC[C@@]3(OC(C)=O)[C@H]2[C@H](OC(=O)c2ccccc2)[C@]2(O)C[C@H](OC(=O)[C@H](O)[C@@H](NC(=O)OC(C)(C)C)c3ccccc3)C(C)=C1C2(C)C [PCMI-31],IC50,[1],9.63 ± 0.12 nM
same,inhibition at 1 µM,[2],95.6%
same,inhibition at 1 µM,LNCaP prostate cancer,82.2%
same,inhibition at 1 µM,A2780 ovarian cancer,95.6%
same,inhibition at 1 µM,DU145 prostate cancer,85.8%
same,inhibition at 1 µM,HL60 leukemia,97.8%
same,inhibition at 1 µM,[3],76%
same,inhibition at 1 µM,K562 leukemia,93.2%
same,inhibition at 1 µM,MDA-MB-436 breast cancer,86.3%
same,inhibition at 1 µM,HeLa cervical cancer,103%
same,inhibition at 1 µM,HCT 116 colon cancer,60.7%
same,inhibition at 1 µM,BGC-823 gastric cancer,96.2%
same,inhibition at 1 µM,B16 melanoma,81.8%
same,inhibition at 1 µM,MCF-7 breast cancer,90.8%
same,inhibition at 1 µM,HT29 colon cancer,89.4%
same,inhibition at 1 µM,[4],87.7%
same,inhibition at 1 µM,A375 melanoma,88.4%
